Data published in US20260265538A1, “Aqueous Industrial Product Stabilized Against Microbial Contamination” (Thor GmbH, priority 2023, published 2026).
Structures can show the parent of a compound that is named as a salt.

Tested on: Bacteria mixture 1 (Pseudomonas genus)
Test: Repetitive stress test of paints with bacteria mixture 1, semiquantitative evaluation (examples 2 and 3)
Type: cell-based
Source text: Paints 1 to 3 were mixed and homogenized with various concentrations of the guanidinium salts to be tested.
The batches obtained of the paint thus prepared were inoculated repeatedly with a mixture of different wild-type bacterial strains that are of practical relevance with regard to contamination. These bacteria had previously been isolated from commercial emulsion paints containing conventional preservatives (bacteria mixture 1, Pseudomonas genus), which are microbially contaminated in practice, and commercial so-called preservative-free alkaline emulsion paints (bacteria mixture 2, alkaliphilic bacteria of the Nesterenkonia & Alkalibacterium genus), which are microbially contaminated in practice.
• Pseudomonas spp. (Pseudomonas oleovorans group) DSM 33933 • Pseudomonas aeruginosa DSM 33935 • Pseudomonas oleovorans DSM 33936 • Pseudomonas putida DSM 33937 • Pseudomonas aeruginosa DSM 33938
The inoculum was added to the respective sample in each inoculation at 2% (v/w) as a fresh cell suspension in a physiological saline solution (0.9% NaCl). The cell count of the added inoculum in example 1 was 10^5/ml, in examples 2 to 5 10^9/ml, and in example 6 10^6/ml, each in equal portions consisting of the individual bacterial strains. The cell suspension was produced by growing the individual bacteria at 30° C. for 24 h in liquid culture on a shaker. The medium used to grow the bacteria from bacteria mixture 1 was Müller-Hinton liquid medium. Bacteria from bacteria mixture 2 were grown in Müller-Hinton liquid medium that had been adjusted to pH 9.5-9.7 with an alkaline buffer solution beforehand. After growing, the individual liquid cultures were centrifuged, and the cells were resuspended in physiological saline solution. In order to adjust the mixture to the desired cell count, the individual bacteria suspensions, if necessary, were diluted accordingly before being combined with saline solution. The cell count of the inoculum was determined in each case by chamber counting.
In examples 2 to 6, what is called a repetitive stress test with bacteria was conducted by inoculating the samples at particular time intervals repeatedly with a bacteria suspension having a cell count of 10^9/ml (2% v/w) and monitoring the evolution of the bacteria by a semiquantitative evaluation method. After each inoculation, the samples were incubated at 30° C. for 6 days (bacteria mixture 1 and 3) or 7 and 14 days (bacteria mixture 2), and after these periods bacterial infestation was evaluated semiquantitatively in each case. For this purpose, an aliquot was taken from each sample after homogenization using a sterile plastic inoculation loop (10 μl) and streaked evenly on agar plates (bacteria mixture 1 and 3 on tryptic soy agar, bacteria mixture 2 on DSMZ 31 alkaline nutrient agar). The streaked agar plates were then incubated at 30° C. for 48 h (bacteria mixture 1 and 3) or 5 to 7 days (bacteria mixture 2). After incubation, the bacterial colonies grown on the agar plates were visually evaluated and quantified according to the following scheme:
A total of 3 inoculation cycles was performed in each repetitive stress test.
Inoculation 2% (w/v) with Bacteria Mixture 1, 10^9 CFU/ml
2% (w/v) Inoculation with Bacteria Mixture 1, […]

Measured: Stabilization of the paint against microbial infestation

N=C(N)N [guanidine hydrochloride]
distinct stabilization: table 2, addition of 0.25% by weight to paint 1 having a pH of pH 8.5 | table 2, addition of 0.25% by weight to paint 2 having a pH of 9.0 | table 3, paint 1, pH of 7.5, addition of 0.8% by weight | table 3, paint 2, pH of pH 7.6, addition of 0.8% by weight
